Experimental data as given in paper PMC6973020, “Quinoline‐Conjugated Ruthenacarboranes: Toward Hybrid Drugs with a Dual Mode of Action” (Chemmedchem, 2019).

Legend:
U251 human glioma = assay: MTT cell viability assay, U251; assay type: cell-based; conditions: 72 h
From the text: Thus, care must be taken when comparing their biological activities with those of our previous studies, even with the same cell line, because the covalent vs. non‐covalent combination of drugs might imply different mechanisms of action in the cell.44 Here, we studied the in vitro activity of ruthenacarborane 3, i. e. free acid, and its 8‐hydroxyquinolyl (4) and 4‐{(7‐chloroquinolin‐4‐yl)oxy}butanol‐1‐yl (5) esters, against a panel of cancer cell lines (B16 mouse melanoma, A375 human skin melanoma, MCF‐7 human breast adenocarcinoma, LN229 human glioblastoma, U251 human glioma). Human fibroblast cell line MRC‐5, murine microglial cell line BV‐2 as well as peritoneal exudate cells (Mph), were chosen as models for non‐malignant cells. […] On the other side, we wanted to assess the reproducibility of the viability data, under either controlled (with BSA) or uncontrolled (without BSA) conditions, in two sets of independent assays. […] Cells were exposed to 3–5 for 72 h, after which cell viability was determined via 3‐(4,5‐dimethylthiazol‐2‐yl)‐2,5‐diphenyltetrazolium bromide (MTT) and crystal violet (CV) assays, in parallel (Table 2). Cisplatin was also tested as reference.
Preparation of drug solutions. […] Stock solution of cisplatin was prepared in DMF (10 mM) immediately before use. A stock solution of BSA in PBS was prepared at 1.28 mM concentration, and stored at 4 °C in the dark. […] Alternatively, 3 or 4 (DMSO stock solution) were added to the BSA solution in PBS, always with a 10 : 1 molar ratio of BSA to ruthenacarborane. The BSA−ruthenacarborane solutions were incubated 0.5–1 h at room temperature, then diluted with cell culture medium to the desired final concentrations. Final concentrations of 3 and 4 were the same as for the BSA‐free formulation. Final DMSO was 0.02–0.5 vol %.
Colorimetric assays for cellular viability. […] For counting the number of attached (viable) cells, cells were fixed with 4 % (w/v) paraformaldehyde for 10 min at room temperature, and subsequently stained for 15 min with […] crystal violet (CV) solution. Cells were then washed with tap water, dried in air, and the CV dye was dissolved in 33 % (w/v) acetic acid solution. For the detection of mitochondrial respiration, cells were cultivated in MTT staining solution (0.5 mg mL^−1) for approximately 1 h. The dye was then discarded, and the formed formazan (purple) was dissolved in DMSO. The absorbance was measured with an automated microplate reader at λmax 540 nm, with the reference λmax 670 nm. Untreated cells or cells treated only with BSA (control) were also measured, as reference for BSA‐free and BSA‐containing drug formulations, respectively. […] Cell viability is expressed as percentage (%) relative to control (untreated cultures).58 Experiments were run in three independent replicates. […]

MCF‐7 cells = assay: AO staining (acidic vacuoles, autophagy), MCF‐7; assay type: cell-based, human; conditions: MCF‐7, 20 μM, 72 h
Method: Flow cytometry. For gaining better insights into the mechanisms of action of the ruthenium complexes, MCF‐7 and LN229 cells incubated with an IC50 dose of 3 or 4, were analyzed via flow cytometry. Several staining protocols were carried out in parallel, in independent experiments: i) AnnV/PI for the detection of apoptotic cell death, ii) AO for the detection of acidic vacuoles, iii) ApoStat for checking caspase activation, iv) CFSE for detecting interference with cellular proliferation, and v) DAPI for the detection of morphological signs of apoptosis. Untreated cells or cells treated only with BSA (control) were also measured, as reference for BSA‐free and BSA‐containing drug formulations, respectively. […] Channels FL1 (green emission), FL2 (orange emission) and/or FL3 (dark red emission) were used for fluorescence detection, according to the specific staining agent. Sideward Scatter (SSC) for MCF‐7 cells treated with 4 or BSA−4 was also analyzed, with respect to the control, for detection of shifts of cell granularity. […]
FCS, 2 mM L‐glutamine, 0.01% sodium pyruvate and antibiotics, at 37 °C in a humidified atmosphere with 5% CO2. […] Cells were counted and seeded in 96‐well plates and incubated overnight, as described above. […]
Staining Protocols for Flow Cytometric Analysis. […] Finally, cells were washed in PBS, resuspended in PBS (or AnnV‐binding buffer for AnnV/PI), and analysed. […]

In the case of “closo ‐[3‐(η^6‐p‐Cymene)‐1‐(quinolin‐8‐yl‐acetate)‐3,1,2‐RuC2B9H10] [Compound 4]”, the IC50 (U251 human glioma) is reported as 46.2 ± 1.9 µM and the “autophagy (AO staining)” value (MCF‐7 cells) is reported as “suppressed autophagy”.

With “closo‐ [Compound 3, closo‐ [3‐(η^6‐p‐Cymene)‐1‐(CH2COOH)‐3,1,2‐RuC2B9H10]]” the IC50 (U251 human glioma) was over 100 µM and the “autophagy (AO staining)” value (MCF‐7 cells) was “strongly amplified autophagic processes”.
